In ChEMBL document CHEMBL1153760, “Identification and structure-activity relationships of chromene-derived selective estrogen receptor modulators for treatment of postmenopausal symptoms” (J Med Chem, 2009):

Assays:
Estrogen receptor beta = Estrogen receptor beta (Homo sapiens, UniProt Q92731); test: Inhibition of fluormone ES2 binding to estrogen receptor beta after 1 hr by fluorescence polarization assay
Estrogen receptor [1] = target: T1, Estrogen receptor (Homo sapiens, UniProt P03372); test: Antagonist activity at estrogen receptor in human Ishikawa cells assessed as 17-beta-estradiol-induced alkaline phosphatase activity after 3 days by chemiluminescence assay; assay type: functional, cell-based
T1 sequence (P03372 whole entry): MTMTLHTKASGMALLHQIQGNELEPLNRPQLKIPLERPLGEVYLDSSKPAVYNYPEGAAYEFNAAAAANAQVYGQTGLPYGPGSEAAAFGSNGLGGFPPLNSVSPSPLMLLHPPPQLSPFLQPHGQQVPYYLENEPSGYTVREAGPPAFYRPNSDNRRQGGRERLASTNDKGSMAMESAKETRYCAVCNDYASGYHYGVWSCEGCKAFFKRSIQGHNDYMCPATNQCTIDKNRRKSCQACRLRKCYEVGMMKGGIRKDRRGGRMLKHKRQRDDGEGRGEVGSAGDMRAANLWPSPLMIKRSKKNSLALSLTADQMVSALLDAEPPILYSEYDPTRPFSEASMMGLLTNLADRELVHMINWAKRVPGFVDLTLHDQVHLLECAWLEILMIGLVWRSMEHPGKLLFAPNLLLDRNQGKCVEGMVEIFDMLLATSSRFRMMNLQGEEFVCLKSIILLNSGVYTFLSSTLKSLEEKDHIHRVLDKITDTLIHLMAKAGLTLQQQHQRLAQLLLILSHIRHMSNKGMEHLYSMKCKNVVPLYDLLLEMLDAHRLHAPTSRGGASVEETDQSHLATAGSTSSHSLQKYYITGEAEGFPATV

Estrogen receptor [2] = target: T1, Estrogen receptor; test: Displacement of radiolabeled estrogen from estrogen receptor alpha by scintillation counting
Rattus norvegicus = species on record: Rattus norvegicus; test: animal or person; assay type: functional; settings: Uterus, 72 h, route oral

Chain of Estrogen receptor beta (Q92731 whole entry): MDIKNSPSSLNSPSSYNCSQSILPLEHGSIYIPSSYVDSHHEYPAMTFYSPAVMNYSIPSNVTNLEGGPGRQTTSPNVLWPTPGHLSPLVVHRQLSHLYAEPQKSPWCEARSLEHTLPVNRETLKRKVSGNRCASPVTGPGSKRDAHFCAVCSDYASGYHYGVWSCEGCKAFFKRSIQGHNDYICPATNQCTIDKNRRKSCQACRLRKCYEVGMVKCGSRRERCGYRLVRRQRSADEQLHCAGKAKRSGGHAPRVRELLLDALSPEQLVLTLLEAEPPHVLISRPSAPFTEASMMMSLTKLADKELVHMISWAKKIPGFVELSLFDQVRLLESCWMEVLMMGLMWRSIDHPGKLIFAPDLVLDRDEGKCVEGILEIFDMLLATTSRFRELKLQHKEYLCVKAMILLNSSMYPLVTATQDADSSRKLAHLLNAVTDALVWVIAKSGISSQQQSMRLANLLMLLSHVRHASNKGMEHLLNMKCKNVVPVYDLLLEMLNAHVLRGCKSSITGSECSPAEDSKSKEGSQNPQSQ

Row | IC50 (Estrogen receptor beta) | IC50 (Estrogen receptor [1]) | IC50 (Estrogen receptor [2]) | SMILES | inhibition in vivo at 1 mg/kg (Rattus norvegicus)
1 | 31 nM | 8 nM | 13 nM | Oc1ccc2c(c1)OC(c1ccc(OCCN3CCCCC3)cc1)C1=C2CCOc2cc(O)ccc21 (stereo not given) | 77%
2 | 16 nM | > 10000 nM | 4.8 nM | COC(=O)COc1ccc(C2Oc3cc(O)ccc3C3=C2c2ccc(O)cc2OCC3)cc1 (stereo not given) | 0%
3 | 250 nM | > 10000 nM | 120 nM | O=C(O)CCOc1ccc([C@H]2Oc3cc(O)ccc3C3=C2c2ccc(O)cc2OCC3)cc1 | 0%
4 | 12.7 nM | > 10000 nM | 2.63 nM | O=C1CCC(=O)N1CCCOc1ccc([C@H]2Oc3cc(O)ccc3C3=C2c2ccc(O)cc2OCC3)cc1 | 0%
5 | 44 nM | > 10000 nM | 326 nM | OCCCOc1ccc(C2Oc3cc(O)ccc3C3=C2c2ccc(O)cc2OCC3)cc1 (stereo not given) | 0%
6 | 11 nM | > 10000 nM | 310 nM | OCCOc1ccc(C2Oc3cc(O)ccc3C3=C2c2ccc(O)cc2OCC3)cc1 (stereo not given) | 0%
7 | > 10000 nM | > 10000 nM | > 10000 nM | COc1ccc2c(c1)O[C@@H](c1ccc(OCCN3CCCCC3)cc1)C1=C2CCOc2cc(OC)ccc21 | 7%
8 | 0.64 nM | > 10000 nM | 4.8 nM | O=C1CCC(=O)N1CCOc1ccc([C@H]2Oc3cc(O)ccc3C3=C2c2ccc(O)cc2OCC3)cc1 | 0%
9 | 11 nM | 122 nM | 7 nM | CCN(CC)CCOc1ccc([C@@H]2Oc3cc(F)ccc3C3=C2c2ccc(O)cc2OCC3)cc1 | 11%
10 | 24 nM | 150 nM | 4.2 nM | Oc1ccc2c(c1)OCCC1=C2[C@H](c2ccc(OCCN3CCCCC3)cc2)Oc2ccccc21 | 20%
11 | 16 nM | 32 nM | 3.4 nM | Oc1ccc2c(c1)O[C@@H](c1ccc(OCCN3CCCCC3)cc1)C1=C2CCOc2cc(O)ccc21 | 88%
12 | 140 nM | 2670 nM | 85 nM | Oc1ccc2c(c1)O[C@H](c1ccc(OCCN3CCCCCC3)cc1)C1=C2CCOc2ccccc21 | 11%
13 | 108 nM | 113 nM | 5 nM | CCN(CC)CCOc1ccc([C@H]2Oc3cc(F)ccc3C3=C2c2ccc(O)cc2OCC3)cc1 | 80%
14 | 99 nM | 76 nM | 5.8 nM | Oc1ccc2c(c1)OCCC1=C2[C@@H](c2ccc(OCCN3CCCCC3)cc2)Oc2ccccc21 | 130%
15 | 5.68 nM | > 10000 nM | 41 nM | O=C1CCC(=O)N1CCCOc1ccc([C@@H]2Oc3cc(O)ccc3C3=C2c2ccc(O)cc2OCC3)cc1 | 0%

Row | SMILES | IC50 (Estrogen receptor beta) | IC50 (Estrogen receptor [1]) | IC50 (Estrogen receptor [2]) | inhibition in vivo at 1 mg/kg (Rattus norvegicus)
16 | Oc1ccc2c(c1)O[C@H](c1ccc(OCCN3CCCC3)cc1)C1=C2CCOc2cc(O)ccc21 | 14 nM | 10 nM | 1.2 nM | 10%
17 | CN1CCN(CCOc2ccc([C@@H]3Oc4cc(O)ccc4C4=C3c3ccc(O)cc3OCC4)cc2)CC1 | 580 nM | > 10000 nM | 312 nM | 5%
18 | Oc1ccc2c(c1)O[C@@H](c1ccc(OCCN3CCCC3)cc1)C1=C2CCOc2cc(O)ccc21 | 8.7 nM | 165 nM | 2.5 nM | 20%
19 | Oc1ccc2c(c1)OC(c1ccc(OCCN3CCCCC3)cc1)C1=C2CCCOc2cc(O)ccc21 (single isomer, unassigned; (+)) | 77 nM | 121 nM | 23 nM | 33%
20 | Oc1ccc2c(c1)O[C@H](c1ccc(OCCCN3CCCCC3)cc1)C1=C2CCOc2cc(O)ccc21 | 31 nM | 420 nM | 22 nM | 23%
